Measured values taken from patent publication US5710274A, “N-aminoalkyldibenzofurancarboxamides; new dopamine receptor subtype specific ligands” (Neurogen Corporation, priority 1996, dated 1998).
Where a name gives a salt, the structure may show the parent alone.

Key:
D3 receptors = target: T1, D3 receptors (Chlorocebus aethiops, UniProt P52703); assay: D3 receptor binding, displacement of 3H-YM 09151-2; design: species or system African Green monkey; details: recombinant receptors in COS cell pellets; 0.5 nM 3H-YM 09151-2; 48° C; pH 7.4
T1 construct: expressed in transfected cells; host or cells: COS cells
T1 sequence (P52703 whole entry): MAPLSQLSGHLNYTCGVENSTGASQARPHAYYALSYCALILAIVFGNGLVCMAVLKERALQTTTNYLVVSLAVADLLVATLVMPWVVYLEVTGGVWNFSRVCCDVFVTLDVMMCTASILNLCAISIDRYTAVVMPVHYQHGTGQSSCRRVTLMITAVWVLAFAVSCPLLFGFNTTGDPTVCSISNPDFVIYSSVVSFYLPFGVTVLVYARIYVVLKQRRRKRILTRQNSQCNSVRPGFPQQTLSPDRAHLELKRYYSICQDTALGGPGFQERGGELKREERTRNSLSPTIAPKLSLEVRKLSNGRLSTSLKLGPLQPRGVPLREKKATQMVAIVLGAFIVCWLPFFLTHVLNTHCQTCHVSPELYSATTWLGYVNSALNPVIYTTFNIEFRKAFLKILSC
Protocol: (§1) Pellets of COS cells containing recombinantly produced D2 or D3 receptors from African Green monkey were used for the assays. The sample is homogenized in 100 volumes (w/vol) of 0.05M Tris HCl buffer at 4° C. and pH 7.4. The sample is then centrifuged at 30,000×g and resuspended and rehomogenized. The sample is then centrifuged as described and the final tissue sample is frozen until use. The tissue is resuspended 1:20 (wt/vol) in 0.05M Tris HCl buffer containing 100 mM NaCl.
(§2) Incubations are carried out at 48° C. and contain 0.4 ml of tissue sample, 0.5 nM ^3 H-YM 09151-2 and the compound of interest in a total incubation of 1.0 ml. Nonspecific binding is defined as that binding found in the presence of […] spiperone; without further additions, nonspecific binding is less than 20% of total binding. The binding characteristics of representative compounds of the invention for D2 and D3 receptor subtypes are shown in Table 2 for rat striatal homogenates.

D2 receptors = target: T2, D2 receptors (Chlorocebus aethiops, UniProt P52702); assay: D2 receptor binding, displacement of 3H-YM 09151-2; design: species or system African Green monkey; details: recombinant receptors in COS cell pellets; 0.5 nM 3H-YM 09151-2; 48° C; pH 7.4
T2 construct: expressed in transfected cells; host or cells: COS cells
T2 sequence (P52702 whole entry): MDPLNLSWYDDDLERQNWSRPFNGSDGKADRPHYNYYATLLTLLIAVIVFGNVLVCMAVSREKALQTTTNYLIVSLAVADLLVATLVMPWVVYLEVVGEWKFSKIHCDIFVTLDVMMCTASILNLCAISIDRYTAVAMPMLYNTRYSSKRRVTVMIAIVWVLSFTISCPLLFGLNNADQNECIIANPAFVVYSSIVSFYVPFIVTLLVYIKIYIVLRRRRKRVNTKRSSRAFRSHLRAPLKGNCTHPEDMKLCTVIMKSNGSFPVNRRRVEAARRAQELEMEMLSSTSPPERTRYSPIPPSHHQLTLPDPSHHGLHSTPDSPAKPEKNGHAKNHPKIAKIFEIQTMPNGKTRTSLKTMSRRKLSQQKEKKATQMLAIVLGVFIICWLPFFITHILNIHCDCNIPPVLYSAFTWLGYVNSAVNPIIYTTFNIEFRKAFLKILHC
Protocol: as §1, §2

Row | Ki (D3 receptors) | Ki (D2 receptors) | Compound
1 | 1 nM | 157 nM | O=C(NCCCCN1CCN(c2cccc(Cl)c2Cl)CC1)c1ccc2oc3ccccc3c2c1 [Compound 1, N-(1-{4-[4-(2,3-Dichlorophenyl)piperazin-1-yl]}butyl)-2-dibenzofurancarboxamide hydrochloride]
2 | 1.3 nM | 201 nM | O=C(NCCCCN1CCN(c2cccc3ccccc23)CC1)c1ccc2oc3ccccc3c2c1 [Compound 2, N-(1-{4-[4-(1-Naphthyl)piperazin-1-yl]}butyl)-2-dibenzofurancarboxamide hydrochloride]
